# Assays:
# termites [1] = assay: Copper naphthenate laboratory study, ARS bait matrix in foraging boxes; format: in vivo, Coptotermes formosanus
# Method: (§1) For bait matrices with a final concentrations of NHA sodium salt of either 250 ppm or 500 ppm, the following procedure was used. A total of 25 mg or 50 mg, respectively of the NHA sodium salt was weighed using a Mettler balance. The NHA sodium salt complex was placed into a 50 ml sterile screw cap conical tube (#62.547.004; Sarstedt, Newton, N.C.) and dissolved with 40 ml nutritive solution described in Example 2 of U.S. patent application Ser. No. 09/294,499 filed Apr. 20, 1999, hereby incorporated by reference. Under a laminar flow hood, this product was mixed with 27 ml more of sterile nutritional supplement in a 250 ml sterile glass bottle (prepared as reported by M. G. Rojas and J. A. Morales-Ramos, April 2001, “Bait matrix for delivery of chitin synthesis inhibitors to the Formosan subterranean termite [Isoptera: Rhinotermitidae],” J. Econ. Entomol. 94(2) :506-510) hereby incorporated by reference. The bottle was tightly closed with a screw cap and manually shaken for 2 minutes. The mixture was added to 33 g of sterile cellulose as reported by Rojas and Morales-Ramos (2001) supra. The mixture was manually homogenized using a stainless steel spatula. To encase the bait matrix, tubes made of fibrous casing material (#124B; L.E.M. Products, Inc., Miamitown, Ohio) were cut into 150 mm long portions as reported by Rojas and Morales-Ramos (2001) supra. Fifty grams of bait matrix containing NHA sodium salt was compacted into one end of the inlet tube, and the open end and of the inlet tube was closed with a rubber band. The bait casing was placed inside of the foraging box adjacent to a 10 g piece of pine wood, taking care that it was partially covered with sand. Control bait matrix was prepared minus NHA, and presented in the same way as the treatment matrix to Formosan termites taken from three different colonies, with two boxes per locality totaling six boxes of 2500 termites per treatment. (Rojas and Morales-Ramos [2001] supra). All the experimental boxes were maintained under dark conditions at 27±1° C., and 90±2% relative humidity. Observations were done every 72 hours until all the termites died. The time to reach 100% mortality was measured and recorded. Mean comparisons among treatments and control were conducted.
# Copper naphthenate (Product No. PS-2028, Chem Service, West Chester, Pa.) was dissolved in 90% warm ethanol at 3 different concentrations of 50, 100 and 200 ppm. The ethanol solution was mixed with the liquid part of the ARS bait matrix (see Example 2) and bait was prepared and presented to the termites as above in Example 1 having 4 repetitions per dose and a control. It was observed that at 50 ppm of chemical, all termites in 50% of the boxes died at about 8 weeks; and termites in 75% of the boxes died at about 10 weeks; at 100 ppm all termites died in the boxes at 8 weeks, and at 200 ppm all termites died in all tested boxes at 8 weeks. All termites in the treatments were dead by week 12.
# termites [2] = details: Grace et al. 1993; cited from earlier work
# C. formosanus [3] = assay: ARS bait matrix bioassay with NHA sodium salt, protocol of Example 1 (Example 2); format: in vivo, Coptotermes formosanus
# Method: as §1
# N-hydroxynaphthyalimide (NHA) which is commercially available as pure chemical, is dissolved in distilled water using a sterile container; At concentrations of 500 ppm, NHA is effective as bait active ingredient taking a mean time to kill C. formosanus in 2½ months in lab conditions. […]
# Formosan termites = assay: Foraging box bait matrix bioassay, NHA sodium salt (Example 1); format: in vivo, Coptotermes formosanus; details: 6 boxes of 2500 termite workers
# Method: as §1
# Reticulitermes spp. = details: low toxicity baits; cited from earlier work
# C. formosanus [4] = details: low toxicity baits; cited from earlier work
molecule,measurement,setting,value
Copper naphthenate,week by which all termites in the treatments were dead,"termites [1]; 50, 100 and 200 ppm",≤ 12 week
same,Percent colonies of 2500 termite workers alive,"termites [1]; 50 ppm, 8 wks after treatment",50%
same,Percent colonies of 2500 termite workers alive,"termites [1]; 50 ppm, 10 wks after treatment",25%
same,Percent colonies of 2500 termite workers alive,"termites [1]; 50 ppm, 12 wks after treatment",0%
same,boxes in which all termites died,"termites [1]; 50 ppm, at about 8 weeks",50%
same,boxes in which all termites died,"termites [1]; 50 ppm, at about 10 weeks",75%
same,time at which all termites died in the boxes,termites [1]; 100 ppm,8 weeks
same,Percent colonies of 2500 termite workers alive,"termites [1]; 100 ppm, 8 wks after treatment",0%
same,Percent colonies of 2500 termite workers alive,"termites [1]; 100 ppm, 10 wks after treatment",0%
same,Percent colonies of 2500 termite workers alive,"termites [1]; 100 ppm, 12 wks after treatment",0%
same,time at which all termites died in all tested boxes,termites [1]; 200 ppm,8 weeks
same,acceptance of the bait and time to kill,termites [1]; 200 ppm dose,great variability
same,Percent colonies of 2500 termite workers alive,"termites [1]; 200 ppm, 8 wks after treatment",0%
same,Percent colonies of 2500 termite workers alive,"termites [1]; 200 ppm, 10 wks after treatment",0%
same,Percent colonies of 2500 termite workers alive,"termites [1]; 200 ppm, 12 wks after treatment",0%
same,repellence to termites,termites [2],highly repellent
same,toxicity to termites,termites [2],toxic
"O=C1c2cccc3cccc(c23)C(=O)N1[O-].[Na+] [NHA-sodium salt, N-hydroxynaphthyalimide Sodium Salt]",repellence to the termites,C. formosanus [3]; 500 ppm,without any signs of repellence
same,time to formosan termite mortality,"C. formosanus [3]; 500 ppm, preliminary results, dose range 50, 250, 500 ppm",within about two months
same,dose at which repellence was observed,C. formosanus [3]; in vivo,higher than 1500 ppm
same,Colonies Alive,"Formosan termites; 250 ppm in bait matrix, 1 Month of feeding",4
same,Colonies Alive,"Formosan termites; 250 ppm in bait matrix, 2 Months of feeding",3
same,Colonies Alive,"Formosan termites; 250 ppm in bait matrix, 2½ Months of feeding",0
same,Colonies Alive,"Formosan termites; 500 ppm in bait matrix, 1 Month of feeding",3
same,Colonies Alive,"Formosan termites; 500 ppm in bait matrix, 2 Months of feeding",1
same,Colonies Alive,"Formosan termites; 500 ppm in bait matrix, 2½ Months of feeding",0
O=C(NC(=O)c1c(F)cccc1F)Nc1cc(Cl)c(OC(F)(F)C(F)F)c(Cl)c1 [hexaflumuron],suppressing colonies,Reticulitermes spp.,particularly effective
same,suppressing colonies,C. formosanus [4],particularly effective
O=C(NC(=O)c1c(F)cccc1F)Nc1ccc(Cl)cc1 [diflubenzuron],suppressing colonies,Reticulitermes spp.,particularly effective
same,suppressing colonies,C. formosanus [4],particularly effective

# From patent USRE44543E1, “Naphthalenic compounds as termite bait toxicants” (priority 2002, dated 2013)
